The values below are quoted from earlier work in article PMC10289903 (Investigational New Drugs, 2023).

In this series the test system is platinum-resistant or platinum-refractory recurrent ovarian cancer. The settings on record: placebo plus gemcitabine arm; 95% CI 1.8–3.8; cited from earlier work.

For the compound `Nc1ccn([C@@H]2O[C@H](CO)[C@@H](O)C2(F)F)c(=O)n1` [gemcitabine, reference compound], the PFS is recorded as 3.0 months.
